Measurements reported in ChEMBL document CHEMBL5131389, “PSMA-targeted small-molecule docetaxel conjugate: Synthesis and preclinical evaluation” (Eur J Med Chem, 2022).
“And” between values parts separate entries of the source, which are not always exact repeats. Equal values may be shown once. The source made the active and inactive calls. The rule behind the calls is not given here.

Columns and labels:
[1] = Acute toxicity in ICR mouse assessed as animal death at 183 to 960 mg/kg, iv administered for 14 days as pluronic F127 formulation and measured after 5 days; format: organism-based; settings: in vivo, 456 h, dose 183-960 mg/kg, time 19 day
[2] = tested on: CWR22R; experiment: Antitumor activity against human 22Rv1 cells xenografted in Balb/c nude mouse assessed as tumor growth inhibition at 10 mg/kg, ip administered once in two days for three times and measured 4 days after the end of treatment relative to control; format: functional; settings: 22Rv1, 240 h, time 10 day, read-out: TGI
[3] = Chronic toxicity in Soviet Chinchilla rabbit assessed as decrease in body weight at 10.17 mg/kg, iv administered as pluronic F127 formulation at 4 intervals for 21 days and observed upto day 49; format: organism-based, Oryctolagus cuniculus; settings: in vivo, 1176 h, time < 49 day
[4] = Chronic toxicity in rat assessed as increase in relative spleen mass at 18.75 mg/kg, iv administered as pluronic F127 formulation at 4 intervals for 21 days and observed 3 weeks post last injection relative to control; format: organism-based; settings: in vivo, 2544 h, time 106 day
[5] = Toxicity in Balb/c nude mouse xenografted with human 22Rv1 cells assessed as animal death at 30 mg/kg, ip measured upto 30 days; format: organism-based, CWR22R; settings: in vivo, 720 h, time < 30 day
[6] = Subchronic toxicity in Wistar rat assessed as decrease in body weight at 58 mg/kg, iv administered as pluronic F127 formulation daily for 28 days; format: organism-based; settings: in vivo, 672 h, time 28 day
[7] = Chronic toxicity in rat assessed as decrease in relative mass of testes administered intravenously as pluronic F127 formulation at 4 intervals for 21 days and observed 3 weeks post last injection relative to control; settings: in vivo, iv, 2544 h, time 106 day
[8] = Chronic toxicity in rat assessed as neurological disorder at 22.5 mg/kg, iv administered as pluronic F127 formulation at 4 intervals for 21 days and observed 3 weeks post last injection; format: organism-based; settings: in vivo, 2544 h, time 106 day
[9] = Chronic toxicity in Soviet Chinchilla rabbit assessed as external signs of intoxication administered intravenously as pluronic F127 formulation at 4 intervals for 21 days and observed 3 weeks post last injection; parameters: species or system Oryctolagus cuniculus; settings: in vivo, iv, 2544 h, time 106 day
[10] = Clearance in Soviet Chinchilla rabbit at 8.1 mg/kg, iv administered as pluronic F127 formulation measured upto 72 hrs by high-performance liquid chromatography tandem mass spectrometric analysis; format: ADME, organism-based, Oryctolagus cuniculus; settings: in vivo
[11] = Chronic toxicity in rat assessed as change in volume of excreted urine at 15 mg/kg, iv administered as pluronic F127 formulation at 4 intervals for 21 days and observed 3 weeks post last injection; format: organism-based; settings: in vivo, 2544 h, time 106 day
[12] = Chronic toxicity in rat assessed as change in volume of excreted urine at 18.75 to 22.5 mg/kg, iv administered as pluronic F127 formulation at 4 intervals for 21 days and observed 3 weeks post last injection; format: organism-based; settings: in vivo, 2544 h, dose 18.75-22.5 mg/kg, time 106 day
[13] = Stability of the compound in pH 7.4 buffer measured upto 96 hrs by LC-MS based mass spectrometric analysis; format: physicochemical; settings: pH 7.4, 96 h
[14] = Ratio of AUC (t to infinity) to AUC (0 to infinity) in Soviet Chinchilla rabbit at 8.1 mg/kg, iv administered as pluronic F127 formulation measured upto 72 hrs by high-performance liquid chromatography tandem mass spectrometric analysis; format: ADME, organism-based, Oryctolagus cuniculus; settings: in vivo
[15] = Chronic toxicity in rat assessed as increase in relative mass of adrenal gland administered intravenously as pluronic F127 formulation at 4 intervals for 21 days and observed 3 weeks post last injection relative to control; format: tissue-based; settings: in vivo, iv, 2544 h, time 106 day
[16] = Acute toxicity in Wistar rat assessed as maximum tolerated dose administered intravenously as pluronic F127 formulation and measured for 14 days; settings: in vivo, route iv, time 14 day
[17] = Chronic toxicity in rat assessed as neurological disorder at 15 to […] mg/kg, iv administered as pluronic F127 formulation at 4 intervals for 21 days and observed 3 weeks post last injection; format: organism-based; settings: in vivo, 2544 h, dose lower 15 mg/kg, time 106 day
[18] = Acute toxicity in Wistar rat assessed as decrease in body weight administered intravenously as pluronic F127 formulation and measured for 14 days; settings: in vivo, iv, 336 h, dose 15-279 mg/kg, time 14 day
[19] = Ratio of AUC (t to infinity) to AUC (0 to infinity) in Albino Wistar rat at 15 mg/kg, iv administered as pluronic F127 formulation measured upto 72 hrs by high-performance liquid chromatography tandem mass spectrometric analysis; format: ADME, organism-based; settings: in vivo
[20] = Chronic toxicity in rat assessed as change in alkaline phosphatase level at 18.75 to 22.5 mg/kg, iv administered as pluronic F127 formulation at 4 intervals for 21 days and observed 3 weeks post last injection; format: organism-based; settings: in vivo, 2544 h, dose 18.75-22.5 mg/kg, time 106 day
[21] = tested on: DU-145; experiment: Antitumor activity against human DU-145 cells xenografted in BALB/c nude mouse assessed as tumor growth inhibition at 60 mg/kg, ip measured upto 30 days; format: functional; settings: DU-145, 720 h, time <= 30 day, read-out: TGI
[22] = tested on: DU-145; experiment: Antitumor activity against human DU-145 cells xenografted in BALB/c nude mouse assessed as reduction in tumor growth index at 60 mg/kg, ip measured upto 30 days (reference value: 1110.1 +/- 136.7 %); format: functional; parameters: scale not given: the % may be the effect or the level left; settings: time <= 30 day
[23] = Acute toxicity in ICR mouse assessed as violation of motor activity in hind limb administered intravenously as pluronic F127 formulation and measured for 14 days; settings: in vivo, iv, 336 h, dose 183-960 mg/kg, time 14 day
[24] = Chronic toxicity in rat assessed as change in relative density of urine at 22.5 mg/kg, iv administered as pluronic F127 formulation at 4 intervals for 21 days and observed 3 weeks post last injection; format: organism-based; settings: in vivo, 2544 h, time 106 day
[25] = tested on: PC-3; experiment: Induction of ROS generation in human PC-3 cells at 800 mV holding potential measured after 1 hr by patch clamp amplifier based optical inverted microscopic analysis; format: functional, cell-based
[26] = MRT (0 to t) in Albino Wistar rat at 15 mg/kg, iv administered as pluronic F127 formulation measured upto 72 hrs by high-performance liquid chromatography tandem mass spectrometric analysis; format: ADME, organism-based; settings: in vivo
[27] = Chronic toxicity in rat assessed as reduction in grooming frequency at 22.5 mg/kg, iv administered as pluronic F127 formulation at 4 intervals for 21 days and observed 3 weeks post last injection; format: organism-based; settings: in vivo, 2544 h, time 106 day
[28] = Chronic toxicity in rat assessed as increase in relative mass of pancreas administered intravenously as pluronic F127 formulation at 4 intervals for 21 days and observed 3 weeks post last injection relative to control; format: tissue-based; settings: in vivo, iv, 2544 h, time 106 day
[29] = Chronic toxicity in rat assessed as increase in relative kidney weight at 18.75 mg/kg, iv administered as pluronic F127 formulation at 4 intervals for 21 days and observed 3 weeks post last injection; format: organism-based; settings: in vivo, 2544 h, time 106 day
[30] = AUC (0 to t) in Albino Wistar rat at 15 mg/kg, iv administered as pluronic F127 formulation measured upto 72 hrs by high-performance liquid chromatography tandem mass spectrometric analysis; format: ADME, organism-based; parameters: dose 15 mg/kg, time < 72 hrs, route iv; settings: in vivo
[31] = Acute toxicity in ICR mouse assessed as lethal dose administered intravenously as pluronic F127 formulation and measured for 14 days; settings: in vivo, route iv, time 14 day

CC(=O)O[C@@]12CO[C@@H]1C[C@H](O)[C@@]1(C)C(=O)[C@H](O)C3=C(C)[C@@H](OC(=O)[C@H](OC(=O)CCCc4cn(CCCNC(=O)[C@H](Cc5ccc(O)cc5)NC(=O)[C@H](Cc5ccccc5)NC(=O)CCC(=O)NCCCCCC(=O)N(CCCC[C@H](NC(=O)N[C@@H](CCC(=O)O)C(=O)O)C(=O)O)Cc5cccc(Cl)c5)nn4)[C@@H](NC(=O)OC(C)(C)C)c4ccccc4)C[C@@](O)([C@@H](OC(=O)c4ccccc4)[C@H]21)C3(C)C
Activity [1]: Toxic | inhibition in vivo at 10 mg/kg [2]: 88% | Activity [3]: Toxic | Activity [4]: Toxic | Activity [5]: Toxic | Activity [6]: Toxic | Activity [7]: Toxic | Activity [8]: Toxic | Activity [9]: Non-Toxic | clearance [10]: 0.483 mL/min/kg | Activity [11]: Non-Toxic | Activity [12]: Toxic | Stability [13]: Unstable | Ratio AUC [14]: 12% | Activity [15]: Toxic | MTD at 336 h [16]: 15 mg/kg | Activity [17]: Non-Toxic | Activity [18]: Toxic | Ratio AUC [19]: 11% | Activity [20]: Non-Toxic | inhibition in vivo at 60 mg/kg [21]: 83.7% | Activity [22]: 150.9% | Activity [23]: Toxic | Activity [24]: Toxic | Activity [25]: Active | MRT last at 72 h [26]: 24 min | Activity [27]: Toxic | Activity [28]: Toxic | Activity [29]: Toxic | AUC(0-t) at 72 h [30]: 28000 ng·h/mL | LD50 at 336 h [31]: 409 mg/kg and 210 µmol/kg
